Measured values: patent publication US8703805B2 (Exelixis Patent Company LLC, priority 2005, dated 2014)

These molecules were tested on LXRα and/or LXRβ (assay: LXR/LXRE co-transfection assay (luciferase reporter, CV-1 cells)). Conditions: IC50 or EC50 for LXR (LXRα and/or LXRβ, not distinguished), tested as described in Example 109, CV-1 cells.
Format: cell-based, human
How it was run: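 Luciferase readout after 20 h compound exposure at 37 °C in CV-1 cells transiently expressing human LXRα or LXRβ with RXRα and an LXRE-driven reporter. Dose-response over 8 points at ½-log spacing, 4 wells each, fitted for EC50/IC50; values average ≥3 independent experiments, efficacy as % of high control.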

Compound | EC50
Cc1cc(-c2cccc(S(C)(=O)=O)c2)cc(C)c1-n1nc(C(C)(C)O)cc1-c1ccccc1Cl [Example 146, 2-(5-(2-chlorophenyl)-1-(3,5-dimethyl-3′-(methylsulfonyl)biphenyl-4-yl)-1H-pyrazol-3-yl)propan-2-ol] | < 1000 nM
CC(C)NC(=O)Oc1cccc(-c2ccc(-c3cc(C(C)(C)O)nn3-c3ccccc3Cl)cc2)c1 [Example 1296, 4′-[1-(2-chlorophenyl)-3-(1-hydroxy-1-methylethyl)-1H-pyrazol-5-yl]biphenyl-3-yl (1-methylethyl)carbamate] | 1000 to 10000 nM
Cc1cc(-c2cccc(S(C)(=O)=O)c2)ccc1-n1nc(C(C)(C)O)c(Cl)c1-c1ccccc1C(F)(F)F [Example 1420, 2-(4-chloro-1-(3-methyl-3′-(methylsulfonyl)biphenyl-4-yl)-5-(2-(trifluoromethyl)phenyl)-1H-pyrazol-3-yl)propan-2-ol] | < 1000 nM
Cc1cc(-c2cccc(S(C)(=O)=O)c2)ccc1-n1nc(C(C)(C)O)c(Cl)c1-c1c(Cl)cccc1Cl [Example 1424, 2-(4-chloro-5-(2,6-dichlorophenyl)-1-(3-methyl-3′-(methylsulfonyl)biphenyl-4-yl)-1H-pyrazol-3-yl)propan-2-ol] | < 1000 nM
CC(C)(O)c1cc(-c2ccc(-c3cccc(S(N)(=O)=O)c3)cc2)n(-c2ccccc2Cl)n1 [Example 1300, 4′-[1-(2-chlorophenyl)-3-(1-hydroxy-1-methylethyl)-1H-pyrazol-5-yl]biphenyl-3-sulfonamide] | 1000 to 10000 nM
CS(=O)(=O)c1cccc(-c2ccc(-c3c(Cl)c(C(=O)NCC(F)(F)F)nn3-c3cccnc3C(F)(F)F)c(Cl)c2)c1 [Example 1403, 4-chloro-5-(3-chloro-3′-(methylsulfonyl)biphenyl-4-yl)-N-(2,2,2-trifluoromethyl)-1-(2-(trifluoromethyl)pyridin-3-yl)-1H-pyrazole-3-carboxamide] | < 1000 nM
CC(=O)c1cc(-c2ccc(-c3cccc(S(=O)(=O)C(C)C)c3)s2)n(-c2ncccc2C(F)(F)F)n1 [Example 1183, 1-{5-(5-{3-[(1-methylethyl)sulfonyl)phenyl}-2-thienyl)-1-[3-(trifluoromethyl)pyridin-2-yl]-1H-pyrazol-3-yl}ethanone] | < 1000 nM
O=C(O)Cc1ccc(F)c(-c2ccc(-c3cc(C(F)(F)F)nn3-c3ncccc3C(F)(F)F)s2)c1 [Example 1152, [4-fluoro-3-(5-{3-(trifluoromethyl)-1-[3-(trifluoromethyl)pyridin-2-yl]-1H-pyrazol-5-yl}-2-thienyl)phenyl]acetic acid] | 1000 to 10000 nM
COC(=O)c1cccc(-c2ccc(-c3cc(C(=O)NCC(F)(F)F)nn3-c3ccccc3Cl)s2)c1 [Example 1275] | 1000 to 10000 nM
Cc1n[nH]c(C)c1CN(C)Cc1cc(-c2ccc(-c3cccc(S(C)(=O)=O)c3)s2)n(-c2ccccc2Cl)n1 [Example 568, 1-[1-(2-chlorophenyl)-5-{5-[3-(methylsulfonyl)phenyl]-2-thienyl}-1H-pyrazol-3-yl]-N-[(3,5-dimethyl-1H-pyrazol-4-yl)methyl}-N-methylmethanamine] | 1000 to 10000 nM
CS(=O)(=O)CCN1CCN(C(=O)c2ccc(-c3cc(C(F)(F)F)nn3-c3ccccc3Cl)cc2)CC1 [Example 1365, 1-({4-[1-(2-chlorophenyl)-3-(trifluoromethyl)-1H-pyrazol-5-yl]phenyl}carbonyl)-4-[2-(methylsulfonyl)ethyl]piperazine] | 1000 to 10000 nM
CS(=O)(=O)c1cccc(-c2ccc(-c3cc(C(=O)N4CCC(C(=O)O)CC4)nn3-c3ccccc3Cl)s2)c1 [Example 592, 1-(1-(2-chlorophenyl)-5-(5-(3-(methylsulfonyl)phenyl)thiophen-2-yl)-1H-pyrazole-3-carbonyl)piperidine-4-carboxylic acid] | 1000 to 10000 nM
CS(=O)(=O)c1cccc(-c2ccc(-c3cc(C(=O)NCC(F)(F)F)nn3-c3ccccc3Cl)s2)c1 [Example 1161, 1-(2-chlorophenyl)-5-{5-[3-(methylsulfonyl)phenyl]-2-thienyl}-N-(2,2,2-trifluoroethyl)-1H-pyrazole-3-carboxamide] | < 1000 nM
CCc1ccccc1-n1nc(C(C)(C)O)cc1-c1ccc(-c2cccc(S(C)(=O)=O)c2)s1 [Example 1329, 2-[1-(2-ethylphenyl)-5-{5-[3-(methylsulfonyl)phenyl]-2-thienyl}-1H-pyrazol-3-yl]propan-2-ol] | < 1000 nM
CC(C)(O)c1cc(-c2ccc(-c3ccc(S(N)(=O)=O)cc3)cc2)n(-c2ccccc2Cl)n1 [Example 1306, 4′-[1-(2-chlorophenyl)-3-(1-hydroxy-1-methylethyl)-1H-pyrazol-5-yl]biphenyl-4-sulfonamide] | 1000 to 10000 nM
CC(C)(O)c1ccc(-c2ccc(-c3cc(C(F)(F)F)nn3-c3cc(Cl)ccc3Cl)s2)cc1S(C)(=O)=O [Example 1304, 2-[4-{5-[1-(2,5-dichlorophenyl)-3-(trifluoromethyl)-1H-pyrazol-5-yl]-2-thienyl}-2-(methylsulfonyl)phenyl]propan-2-ol] | < 1000 nM
CC(C)(O)c1cc(-c2ccc(-c3cccc(S(C)(=O)=O)c3)s2)n(Cc2ccc(F)cc2F)n1 [Example 1243, 2-(1-[(2,4-difluorophenyl)methyl]-5-{5-[3-(methylsulfonyl)phenyl]-2-thienyl}-1H-pyrazol-3-yl)propan-2-ol] | < 1000 nM
CS(=O)(=O)c1cccc(-c2ccc(-c3cc(C4(O)CC4)nn3-c3ccccc3Cl)s2)c1 [Example 1245, 1-[1-(2-chlorophenyl)-5-{5-[3-(methylsulfonyl)phenyl]-2-thienyl}-1H-pyrazol-3-yl]cyclopropanol] | < 1000 nM
CC(C)(O)c1cc(-c2ccc(-c3cc(C(F)(F)F)nn3-c3c(Cl)cccc3Cl)s2)cc(S(C)(=O)=O)c1 [Example 1317, 2-[3-{5-[1-(2,6-dichlorophenyl)-3-(trifluoromethyl)-1H-pyrazol-5-yl]-2-thienyl}-5-(methylsulfonyl)phenyl]propan-2-ol] | < 1000 nM
CC(C)(O)c1cc(-c2ccc(-c3cccc(S(C)(=O)=O)c3)s2)n(-c2cccc(F)c2)n1 [Example 1258, 2-[1-(3-fluorophenyl)-5-{5-[3-(methylsulfonyl)phenyl]-2-thienyl}-1H-pyrazol-3-yl]propan-2-ol] | 1000 to 10000 nM
CC(C)(O)c1cc(-c2c(F)cccc2Cl)n(-c2ccc(-c3cccc(S(C)(=O)=O)c3)cc2F)n1 [Example 120, 2-(5-(2-chloro-6-fluorophenyl)-1-(3-fluoro-3′-(methylsulfonyl)biphenyl-4-yl)-1H-pyrazol-3-yl)propan-2-ol] | < 1000 nM
Cc1ccc(-n2nc(C(F)(F)F)cc2-c2ccc(-c3cccc(S(C)(=O)=O)c3)s2)c(Cl)c1O [Example 1251, 2-chloro-6-methyl-3-[5-{5-[3-(methylsulfonyl)phenyl]-2-thienyl}-3-(trifluoromethyl)-1H-pyrazol-1-yl]phenol] | 1000 to 10000 nM
CC(=O)c1cccc(-c2ccc(-c3cc(C(C)(C)O)nn3-c3ccccc3Cl)s2)c1 [Example 755, 1-(3-{5-[1-(2-chlorophenyl)-3-(1-hydroxy-1-methylethyl)-1H-pyrazol-5-yl]-2-thienyl}phenyl)ethanone] | 1000 to 10000 nM
Cc1cc(-c2cccc(S(C)(=O)=O)c2)ccc1-n1nc(C(C)(C)O)cc1-c1c(F)cccc1Cl [Example 115, 2-(5-(2-chloro-6-fluorophenyl)-1-(3-methyl-3′-(methylsulfonyl)biphenyl-4-yl)-1H-pyrazol-3-yl)propan-2-ol] | < 1000 nM
